{"source": "patent US20260144805A1", "about": "“CANNABIDIOL COMPOSITIONS FOR USE IN THE TREATMENT OF NEURODEGENERATIVE AND NEUROLOGICAL DISORDERS” (JAZZ PHARMACEUTICALS RESEARCH UK LIMITED, priority 2022, published 2026)", "type_in_all_cases": "in vivo", "key": {"rat VPA model [1]": {"system": "rat VPA model", "assay": "Social interaction: Social Approach Avoidance (SAA) P60 in rat VPA model (Example 5; DS = DS-E)", "settings": "adult; risperidone 0.125 mg/kg", "description": "(§1) Time-mated female Wistar rats were administered a single dose of valproic acid (VPA, 600 mg/kg, i.p.) on gestational day 12.5. Male offspring were delivered and confirmation of the VPA induced developmental deficit was rapidly achieved by examination of characteristic “tail kinks” in the juvenile animals. The timeline of experiments is outlined in FIG. 8 and animals were randomly allocated to treatment groups (Table O).\n(§2) Control animals were administered sterile saline (0.9% w/v, i.p.) in utero and the vehicle control (ethanol: Kolliphor HS15: saline (1:1:18, v/v/v), i.p.\nThis test was originally used for assessing anxiety-like behavior and subsequently used to assess the social behavior in potential animal models of schizophrenia (Sams-Dodd, 1995 Behav Pharmacol. 6:55) but has been extended to the study of autism models (Schneider and Przewlocki, 2005 Neuropsychopharmacol. 30:80). Therefore, utilising a model based on published designs (Brodkin et al., 2004 Brain Res. 1002:151; Moy et al., 2004 Genes Brain Behav. 3:287) adult animals were assessed for social preference following prenatal VPA exposure whereby a novel animal was introduced to the test arena (n=8). The main outcome measure was the time engaged in active social behavior. Additionally, the time spent in each of the social, non-social and neutral chamber was also determined. […]"}, "[2]": {"system": "valproic acid-induced autism spectrum disorder (ASD) mouse model", "assay": "Valproic acid-induced ASD model, autism-like behaviors, DS vs sCBD and risperidone (Example 6, Table P)", "set-up": "key to Adult open field hyperactivity (spontaneous LMA on day 1) / Adult open field hyperactivity (LMA on day 2) / Adult marble burying / Adult grooming / Juvenile vocalisation: +: improvement; Ø: no change; −: not tested", "settings": "0.125 mg/kg I.P.", "excerpt": "The main objective of the following study was to assess the effect of the drug substance (DS) of Example 1 in ameliorating autism-like behavior in valproic acid-induced autism spectrum disorder (ASD) mouse model (FIGS. 19A-B)."}, "rat VPA model [3]": {"system": "rat VPA model", "assay": "Open field test (locomotor activity, circling, grooming, centre zone) P56-57 in rat VPA model (Example 5; DS = DS-E)", "settings": "adult, risperidone 0.125 mg/kg", "description": "as §1, §2\nAnimals were scored for locomotor activity and exploratory behavior in a two 10-minute trials within an open field arena over two days. Each day the animals were placed into a […] black Perspex box with 30 cm side walls, under low light and monitored via remote video capture for spontaneous activity. Linked to Ethovision XT image analysis software this was analysed for total distance moved and number and duration of center zone crossings. Manual scoring of the videos was then conducted (blinded to treatment group) to determine frequency of circling behavior (number of 360 degree turns) and time spent grooming.\n(§3) All data was assessed for outliers (ROUT; Prism V9.02) and then normality using D'Agostino and Pearson normality test for n=8, or Shapiro-Wilks test for n<8 or unequal groups. Data that were non-normally distributed were analysed using Kruskal-Wallis followed by planned comparisons with Dunn's correction. Normally distributed data were analysed using one-way ANOVA or two-way ANOVA followed by planned comparisons with Sidak's correction. […] Statistical significance was defined as p<0.05 using Prism 9.0.2 software for analysis."}, "rat VPA model [4]": {"system": "rat VPA model", "assay": "Irritability-like behaviour: bottle brush test in rat VPA model, juvenile P30 and adult (Example 5; DS = DS-E)", "settings": "risperidone 0.125 mg/kg", "description": "as §1, §2\nTo test irritability-like behavior we employed the bottle-brush test modified for rats (Riittinen et al. 1986 Dev Psychobiol 19:105-111). Irritability-like behavior was examined by measuring aggressive and defensive responses during the bottle-brush test carried out in juvenile animals immediately after play behavior evaluation at P30 and again in adult animals on P59. Irritability-like behavior testing was performed under dark conditions with a red light and infrared camera recording. Testing consisted of 10 trials per rat in plastic cages (377×325×170 mm) with fresh bedding. During each trial, the rat was placed at the back of the cage. A bottle-brush was rotated toward the animal's whiskers (from the front of the cage). The brush was rotated around the whiskers of the rat for approximately 1 second. The brush was then rotated back to the front of the cage where it hangs vertically for approximately 2 seconds, during which behavioural responses were recorded. An intertrial interval of 10 second was used.\nEmploying video analysis of the test, the following were scored as aggressive responses: smelling the brush, biting the brush (during the initial phase of rotating the brush forward and back to the starting position), boxing the target, following the brush, exploring the brush (using paws or mouth to manipulate the brush without biting or boxing), mounting the brush, and delayed biting (during the 2 s that the brush hung at the starting position). Additionally, the following were scored as defensive responses: escaping from the brush, digging, burying, jumping, climbing, vocalization, freezing, and grooming. Frequency of each response and the sum of aggressive and defensive behaviours were recorded.\nas §3"}, "[5]": {"settings": "juvenile P30, 8 days, vs VPA/VEH"}}}
{"smiles": "Cc1nc2n(c(=O)c1CCN1CCC(c3noc4cc(F)ccc34)CC1)CCCC2", "note": "[Risperidone]", "values": [{"measurement": "time engaged in active social behaviour (VPA deficit)", "setting": "rat VPA model [1]", "result": "not prevented"}, {"measurement": "Adult grooming", "setting": "[2]; control beside DS", "result": "+"}, {"measurement": "Adult marble burying", "setting": "[2]; control beside DS", "result": "+"}, {"measurement": "Adult open field hyperactivity (LMA on day 2)", "setting": "[2]; control beside DS", "result": "+"}, {"measurement": "Adult open field hyperactivity (spontaneous LMA on day 1)", "setting": "[2]; control beside DS", "result": "+"}, {"measurement": "Adult grooming", "setting": "[2]; control beside sCBD", "result": "+"}, {"measurement": "Adult marble burying", "setting": "[2]; control beside sCBD", "result": "+"}, {"measurement": "Adult open field hyperactivity (LMA on day 2)", "setting": "[2]; control beside sCBD", "result": "+"}, {"measurement": "Adult open field hyperactivity (spontaneous LMA on day 1)", "setting": "[2]; control beside sCBD", "result": "+"}, {"measurement": "Adult marble burying", "setting": "[2]; control beside sCBD-2", "result": "+"}, {"measurement": "Adult open field hyperactivity (LMA on day 2)", "setting": "[2]; control beside sCBD-2", "result": "Ø"}, {"measurement": "Adult open field hyperactivity (spontaneous LMA on day 1)", "setting": "[2]; control beside sCBD-2", "result": "+"}, {"measurement": "grooming behaviour", "setting": "rat VPA model [3]; day 1", "result": "significantly reduced"}, {"measurement": "frequency of centre zone crossings", "setting": "rat VPA model [3]; day 1, vs VPA/Veh", "result": "significant decrease"}, {"measurement": "circling behaviour", "setting": "rat VPA model [3]; day 2", "result": "significantly reversed"}, {"measurement": "grooming behaviour", "setting": "rat VPA model [3]; day 2", "result": "significantly reduced"}, {"measurement": "number of centre zone crossings", "setting": "rat VPA model [3]; day 2", "result": "significantly reduced"}, {"measurement": "time spent in the centre zone", "setting": "rat VPA model [3]; day 2", "result": "significantly reduced"}, {"measurement": "increase in locomotor activity (distance travelled)", "setting": "rat VPA model [3]; day one", "result": "significantly prevented"}, {"measurement": "time spent in the centre zone", "setting": "rat VPA model [3]; day one", "result": "significantly reduced"}, {"measurement": "increase in locomotor activity (distance travelled)", "setting": "rat VPA model [3]; day two", "result": "significantly prevented"}, {"measurement": "defensive behaviours, bottle brush", "setting": "rat VPA model [4]; adult", "result": "no significant effect"}, {"measurement": "aggressive behaviour, bottle brush", "setting": "rat VPA model [4]; adult, all days of assessment", "result": "significantly reduced"}, {"measurement": "irritability score, bottle brush", "setting": "rat VPA model [4]; adult, all four assessment days", "result": "significantly reduced"}, {"measurement": "aggressive responses, bottle brush", "setting": "rat VPA model [4]; [5]", "result": "significantly reduced"}, {"measurement": "irritability score (aggressive + defensive), bottle brush", "setting": "rat VPA model [4]; [5]", "result": "no effect"}]}
